Like-named read-outs stand apart in the source and are kept apart here.
Key:
Alternara solani = test: In vivo fungicidal activity, Tomato early blight (TEB); further: ranges in brackets are in %
Botrytis cinera = test: In vivo fungicidal activity, Pepper Botrytis (PB); further: ranges in brackets are in %
Rhizoctonia solani = test: In vitro fungicidal activity, Rice sheath blight (RHIZSO); type: cell-based; set-up: key: 0: None; 3: slight; 5: moderate; 7: severe; 9: complete; details: 3-7 days of incubation
Experimental: (§1) Test compounds are dissolved in acetone to give concentrations of 25, 10 and 1 ppm and are added to individual cell Walls (24-cell-well plates, Corning), which were previously filled with a suspension of ground plates, Corning), which were previously filled with a suspension of ground fungal mycelium in a chemically defined growth medium. After 3-7 days of incubation, inhibition of […] growth is recorded using the following scale: The data obtained are shown in Table II. [table]

[1] = test system: Pseudocercosporella herpotrichoides; test: In vitro fungicidal activity, Cereal eye spot (PSDCHE); type: cell-based; set-up: key: 0: None; 3: slight; 5: moderate; 7: severe; 9: complete; details: 3-7 days of incubation
Experimental: as §1

Plasmopara viticola = test: In vivo fungicidal activity, Grape downy mildew (GDM); further: ranges in brackets are in %
Blumeria graminis = test: In vivo fungicidal activity, Wheat powdery mildew (WPM); further: ranges in brackets are in %
Pythium ultimum = test: In vitro fungicidal activity, Fruit rot (PYTHUL); type: cell-based; set-up: key: 0: None; 3: slight; 5: moderate; 7: severe; 9: complete; details: 3-7 days of incubation
Experimental: as §1

[2] = test system: Pyricularia grisea f. sp. oryzae; type: in vivo; details: Rice Blast
Cercospora beticola = test: In vivo fungicidal activity, Sugar Beet Cercospora (SBC); further: ranges in brackets are in %
Venturia inaequalis = test: In vivo fungicidal activity, Apple Scab (AS); further: ranges in brackets are in %

Compound	TEB disease control rating (Alternara solani; 12.5 ppm spray)	TEB disease control rating (Alternara solani; 50 ppm spray)	TEB disease control rating (Alternara solani; 200 ppm spray)	PB disease control rating (Botrytis cinera; 12.5 ppm spray)	PB disease control rating (Botrytis cinera; 50 ppm spray)	PB disease control rating (Botrytis cinera; 200 ppm spray)	RHIZSO inhibition of mycelial growth rating (Rhizoctonia solani; 1 ppm)	RHIZSO inhibition of mycelial growth rating (Rhizoctonia solani; 10 ppm)	RHIZSO inhibition of mycelial growth rating (Rhizoctonia solani; 25 ppm)	PSDCH inhibition of mycelial growth rating ([1]; 1 ppm)	PSDCH inhibition of mycelial growth rating ([1]; 10 ppm)	PSDCH inhibition of mycelial growth rating ([1]; 25 ppm)	GDM disease control rating (Plasmopara viticola; 12.5 ppm spray)	GDM disease control rating (Plasmopara viticola; 50 ppm spray)	GDM disease control rating (Plasmopara viticola; 200 ppm spray)	WPM disease control rating (Blumeria graminis; 12.5 ppm spray)	WPM disease control rating (Blumeria graminis; 50 ppm spray)	WPM disease control rating (Blumeria graminis; 200 ppm spray)	PYTHU inhibition of mycelial growth rating (Pythium ultimum; 1 ppm)	PYTHU inhibition of mycelial growth rating (Pythium ultimum; 10 ppm)	also measured
CCn1cnn2c(=NC(C)C(F)(F)F)c(-c3c(F)cc(F)cc3F)c(Cl)nc12 (stereo not drawn) [Example 10]	0 (0)	4 (45-59)	5 (60-74)	4 (45-59)	0 (0)	0 (0)	0	5	5	0	0	0	0 (0)	0 (0)	0 (0)	0 (0)	0 (0)	0 (0)	0	3	PYTHU inhibition of mycelial growth rating (Pythium ultimum; 25 ppm): 5; RB disease control rating ([2]; 12.5 ppm spray): 0 (0); RB disease control rating ([2]; 50 ppm spray): 4 (45-59); RB disease control rating ([2]; 200 ppm spray): 6 (75-89); SBC disease control rating (Cercospora beticola; 12.5 ppm spray): 3 (30-44); SBC disease control rating (Cercospora beticola; 50 ppm spray): 6 (75-89); SBC disease control rating (Cercospora beticola; 200 ppm spray): 6 (75-89); AS disease control rating (Venturia inaequalis; 12.5 ppm spray): 0 (0); AS disease control rating (Venturia inaequalis; 50 ppm spray): 0 (0); AS disease control rating (Venturia inaequalis; 200 ppm spray): 6 (75-89)
CCCOc1cc(F)c(-c2c(Cl)nc3n(CCC)cnn3c2=NC(C)C(F)(F)F)c(F)c1 (stereo not drawn) [Example 9]	6 (75-89)	8 (96-99)	9 (100)	2 (15-29)	1 (1-14)	2 (15-29)	7	7	7	3	3	5	5 (60-74)	3 (30-44)	3 (30-44)	2 (15-29)	6 (75-89)	7 (90-95)	0	0	PYTHU inhibition of mycelial growth rating (Pythium ultimum; 25 ppm): 0; RB disease control rating ([2]; 12.5 ppm spray): 0 (0); RB disease control rating ([2]; 50 ppm spray): 3 (30-44); RB disease control rating ([2]; 200 ppm spray): 4 (45-59); SBC disease control rating (Cercospora beticola; 12.5 ppm spray): 8 (96-99); SBC disease control rating (Cercospora beticola; 50 ppm spray): 8 (96-99); SBC disease control rating (Cercospora beticola; 200 ppm spray): 8 (96-99); AS disease control rating (Venturia inaequalis; 12.5 ppm spray): 0 (0); AS disease control rating (Venturia inaequalis; 50 ppm spray): 6 (75-89); AS disease control rating (Venturia inaequalis; 200 ppm spray): 6 (75-89)
N-[5-chloro-3-methyl-6-(2,4,6-trifluorophenyl)-4H-[1,2,4]triazolo[1,5-α]pyrimidin-7-ylidene]-N-(2,2,2-trifluoroethyl)-amine [Example 1B]	0 (0)	2 (15-29)	4 (45-59)	0 (0)	0 (0)	6 (75-89)	5	5	5	0	1	3	0 (0)	0 (0)	7 (90-95)	0 (0)	0 (0)	0 (0)	0	1	PYTHU inhibition of mycelial growth rating (Pythium ultimum; 25 ppm): 5; RB disease control rating ([2]; 12.5 ppm spray): 0 (0); RB disease control rating ([2]; 50 ppm spray): 0 (0); RB disease control rating ([2]; 200 ppm spray): 5 (60-74); SBC disease control rating (Cercospora beticola; 12.5 ppm spray): 0 (0); SBC disease control rating (Cercospora beticola; 50 ppm spray): 6 (75-89); SBC disease control rating (Cercospora beticola; 200 ppm spray): 6 (75-89); AS disease control rating (Venturia inaequalis; 12.5 ppm spray): 4 (45-59); AS disease control rating (Venturia inaequalis; 50 ppm spray): 4 (45-59); AS disease control rating (Venturia inaequalis; 200 ppm spray): 5 (60-74)
CCCn1cnn2c(=NC(C)C(F)(F)F)c(-c3c(F)cc(F)cc3F)c(Cl)nc12 (stereo not drawn) [Example 11]	0 (0)	0 (0)	0 (0)	0 (0)	0 (0)	0 (0)	0	0	0	0	0	0	0 (0)	0 (0)	3 (30-44)	0 (0)	0 (0)	0 (0)	0	1	PYTHU inhibition of mycelial growth rating (Pythium ultimum; 25 ppm): 1; RB disease control rating ([2]; 12.5 ppm spray): 0 (0); RB disease control rating ([2]; 50 ppm spray): 3 (30-44); RB disease control rating ([2]; 200 ppm spray): 4 (45-59); SBC disease control rating (Cercospora beticola; 12.5 ppm spray): 0 (0); SBC disease control rating (Cercospora beticola; 50 ppm spray): 0 (0); SBC disease control rating (Cercospora beticola; 200 ppm spray): 3 (30-44); AS disease control rating (Venturia inaequalis; 12.5 ppm spray): 0 (0); AS disease control rating (Venturia inaequalis; 50 ppm spray): 6 (75-89); AS disease control rating (Venturia inaequalis; 200 ppm spray): 7 (90-95)
CCn1c(Cl)c(-c2c(F)cc(F)cc2F)c(=NC(C)C(F)(F)F)n2ncnc12 (stereo not drawn) [Example 3]	3 (30-44)	3 (30-44)	0 (0)	2 (15-29)	0 (0)	0 (0)	3	5	5	0	1	1	0 (0)	4 (45-59)	4 (45-59)	0 (0)	0 (0)	3 (30-44)	0	0	PYTHU inhibition of mycelial growth rating (Pythium ultimum; 25 ppm): 0; RB disease control rating ([2]; 12.5 ppm spray): 0 (0); RB disease control rating ([2]; 50 ppm spray): 0 (0); RB disease control rating ([2]; 200 ppm spray): 5 (60-74); SBC disease control rating (Cercospora beticola; 12.5 ppm spray): 0 (0); SBC disease control rating (Cercospora beticola; 50 ppm spray): 0 (0); SBC disease control rating (Cercospora beticola; 200 ppm spray): 0 (0); AS disease control rating (Venturia inaequalis; 12.5 ppm spray): 0 (0); AS disease control rating (Venturia inaequalis; 50 ppm spray): 0 (0); AS disease control rating (Venturia inaequalis; 200 ppm spray): 6 (75-89)
